As a reminder, the IC50 is the concentration that gives 50% inhibition. Broadly, the ΔTm is the shift of the melting midpoint relative to a reference. In general, Ki refers to the dissociation constant of the complex between target and ligand, obtained from inhibition or displacement.

15 molecules from patent US20230339856A1, “NOVEL PHARMACOLOGICAL CHAPERONE COMPOUNDS OF HUMAN ACID ALPHA-GLUCOSIDASE AND THE THERAPEUTIC USE THEREOF” (UNIVERSITÉ GRENOBLE ALPES, priority 2020, published 2023) can be followed below.

Read-outs that look alike come from different tables or passages of the source.

The target of assay [1] is T1, recombinant human acid α-glucosidase (rhGAA) (Homo sapiens (Human), UniProt P10253). In words: Inhibition of rhGAA determined by Fluopol-ABPP. The assay is classed as binding. To be noted: McIlvaine buffer pH 5.0, 37° C., TAMRA probe. The text has this:
The inhibiting activity on recombinant human acid α-glucosidase (rhGAA) of the compounds is implemented using the Fluopol-ABPP method (Fluorescence Polarization Activity Based Protein Profiling) described in the publication of Lahav et al., 2017, J. Am. Chem. Soc. 139: 14192-14197. This technique, based on the competition between an inhibitor and a fluorescent probe capable of binding covalently to the active site of an enzyme, makes it possible to measure the affinity of this inhibitor for the active site of the rhGAA enzyme used for these experiments by the laboratory of Professors Herman S. Overkleeft and Johanes M. F. G. Aerts, Leiden Institute of Chemistry, Leiden University (NL), is the enzyme marketed under the name Myozyme®. […] The […] (TAMRA) fluorescent probe in solution (25 nM) in the buffer is next added to the mixture. After 4 hours, the samples are irradiated with a polarized light (λ=530 nm) and the fluorescence emitted (λ=580 nm) is measured by means of an Infinite® M1000Pro (Tecan) spectrofluorimeter. For each concentration of inhibitor, the percentage of inhibition of the enzyme is determined by the formula:
%Inhibition=[Fmeasured−Fcontrol1)/Fcontro2)×100
The IC50 values are calculated by a non-linear regression of the % inhibition as a function of the concentration [I] by means of the GraphPad Prism 6.0 software. The results are a mean of three identical experiments (triplicates).

Assay [2] has as its target T1, recombinant human acid α-glucosidase (rhGAA). In words: Inhibition of rhGAA determined by measuring the residual activity in vitro. The assay is classed as biochemical. Particulars: sodium acetate buffer pH 4.0, 37° C.; for IC50: 4-nitrophenyl-α-D-glucopyranoside substrate.
Another assay addresses rhGAA (Homo sapiens (Human), UniProt P10253). In words: Thermal stabilization of rhGAA by DSF (differential scanning fluorimetry). The assay is classed as binding. Particulars: [I]=100 μM. On the procedure: The stabilization of rhGAA in the presence of the compounds is determined in accordance with the method described in the publication of Niesen et al., 2007, Nat. Protoc. 2: 2212-2221. The rhGAA enzyme (2.5 μg, 0.1 mg/mL) is incubated in the absence and in the presence of each compound (at a concentration [I]=100 μM), of SYPRO® orange dye (Life Technologies), and of sodium phosphate buffer (25 mM) and of NaCI (150 mM), pH 7.4 or of sodium acetate buffer (25 mmol) and of NaCl (150 mM), pH 4.0. The thermal stability of the enzyme in these various conditions is evaluated by DSF (differential scanning fluorimetry) by varying the temperature by 1° C./min over an interval of 25 to 95° C., and measuring the fluorescence of the SYPRO® orange dye every minute by means of a Real-Time Cycler spectrofluorimeter (Biorad). The relative fluorescence is determined by comparing each fluorescence value measured with that of the maximum fluorescence value of the SYPRO® orange dye for each scan. The results are a mean of three identical experiments (triplicates).
On the technique in general: Differential scanning fluorimetry follows unfolding on heating by fluorescence.

The target in assay [3] is recombinant human lysosomal β-glucocerebrosidase (GBA1) (Homo sapiens (Human), UniProt P04062, R534H). Kind of assay: Inhibition of GBA1 (Cerezyme). To be noted: pH 5.2, 4-methyl-umbelliferone-β-D-glucopyranoside 3.0 mM, 30 minutes. It is filed as biochemical. The procedure: (§1) The selectivity of the compounds was evaluated in the laboratory of Professors Herman S. Overkleeft and Johanes M. F. G. Aerts, Leiden Institute of Chemistry, Leiden University (NL). The enzymes used for determining the selectivity of inhibition of the compounds with respect to various human enzymes are the α-glucosidase II of the endoplasmic reticulum (GANAB), recombinant human lysosomal β-glucocerebrosidase (GBA1), human non-lysosomal β-glucosylceramidase (GBA2) and β-glucosylceramide synthase (GCS). The inhibiting activity of the compounds on these various enzymes is determined as described in the publication by Artola et al., 2017, ACS Cent. Sci. 3: 784-793. The enzyme GBA1 sold under the name Cerezyme® and the enzyme rhGAA sold under the name Myozyme® are used. The human GANAB enzyme used for this study is that of fibroblasts of patients suffering from Pompe disease diagnosed as lacking active GAA and voluntary donors. These fibroblasts were cultivated on an HAMF12-DMEM medium (Sigma) supplemented by 10% (v/v) FCS (fetal calf serum). The GBA2 enzyme was over-expressed in HEK298T cells cultivated on a DMEM medium enriched with glucose (Gibco) supplemented by 10% NBS (newborn bovine serum) and 100 units/mL of penicillin/streptomycin (Gibco) and 5% CO2 at 37° C. The activity of the compounds on human β-glucosylceramide synthase (GCS) is evaluated in situ on cells of the RAW 264.7 type cultivated on an RPMI medium (Gibco) supplemented by 10% FCS, 1 mM of glutamax, 100 units/mL of penicillin/streptomycin (Gibco) and 5% CO2 at 37° C.

In assay [4] the target is α-glucosidase II of the endoplasmic reticulum (GANAB) (Homo sapiens (Human), UniProt Q14697). Kind of assay: Inhibition of GANAB in lysates of fibroblasts of Pompe patients. To be noted: pH 7.0, 4-methyl-umbelliferone-α-D-glucopyranoside 2.4 mM, 2 hours. The assay is classed as biochemical. On the procedure: as §1
(§2) These cell lysates are homogenized using a SilentCrusher grinder (Heidolph®), and then subjected to ultracentrifugation at 32,000 rpm for 30 minutes at 4° C. The total protein concentration is determined in accordance with the Bradford method (Bradford, 1976, Anal. Biochem. 72: 248-254), using a Bradford BioRad Quick Start® kit (Pierce) and BSA (Sigma). The lysates are next aliquoted and stored at −80° C. before use.

Assay [5] has as its target human non-lysosomal β-glucosylceramidase (GBA2) (Homo sapiens (Human), UniProt Q9HCG7). Kind of assay: Inhibition of GBA2 in lysates of HEK298T cells over-expressing GBA2. The assay is classed as biochemical. Particulars: pH 5.8, 4-methyl-umbelliferone-β-D-glucopyranoside 3.0 mM, 1 hour. On the procedure: as §1, §2
The residual activity of GBA2 in the presence of the compounds is determined after pre-incubation for 30 minutes of the homogenates of HEK298T cells over-expressing GBA2 with an inhibitor of GBA1, conduritol β-epoxide (Sigma), at a concentration of 1 mM.

Assay [6] has as its target β-glucosylceramide synthase (GCS) (Mus musculus (Mouse), UniProt O88693). In words: Inhibition of GCS in situ in RAW 264.7 cells. It is filed as cell-based. Particulars: pH 7.0, 1 μM NBD-ceramide. The procedure: as §1, §2
The residual activity of GCS in the presence of the compounds is determined after pre-incubation for 1 hour of the homogenates of RAW 264.7 cells with an inhibitor of GBA1, conduritol β-epoxide (Sigma), at a concentration of 300 μM.
The I50 values for the GCS enzyme are determined in situ in the cell culture medium at pH 7.0 using 1 μM of NBD-ceramide (N-[12-[(7-nitro-2-1,3-benzoxadiazol-4-yl)amino]dodecanoyl]-D-erythro-sphingosine) as substrate, as described in the aforementioned publication of Lahav et al.

Setting [7] is: pH 4.0, read-out: rhGAA ΔTm at pH 4.0.
Setting [8] is: pH 7.4, read-out: rhGAA ΔTm at pH 7.4.

Chain of recombinant human lysosomal β-glucocerebrosidase (GBA1) (P04062 40-536 R534H limits assumed): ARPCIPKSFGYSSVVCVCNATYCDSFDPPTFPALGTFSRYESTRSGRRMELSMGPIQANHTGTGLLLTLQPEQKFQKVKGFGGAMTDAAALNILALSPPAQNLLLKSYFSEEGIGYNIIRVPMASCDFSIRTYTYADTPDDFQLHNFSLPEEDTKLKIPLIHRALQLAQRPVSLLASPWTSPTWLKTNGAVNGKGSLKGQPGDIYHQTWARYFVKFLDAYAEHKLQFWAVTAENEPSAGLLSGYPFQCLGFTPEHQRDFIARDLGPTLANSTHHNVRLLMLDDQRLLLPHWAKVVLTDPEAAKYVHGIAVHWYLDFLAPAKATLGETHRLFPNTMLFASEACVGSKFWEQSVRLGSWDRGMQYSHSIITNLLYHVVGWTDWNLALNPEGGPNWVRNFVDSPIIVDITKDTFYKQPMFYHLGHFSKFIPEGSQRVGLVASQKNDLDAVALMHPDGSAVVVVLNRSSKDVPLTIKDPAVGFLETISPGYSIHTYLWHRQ
Chain of α-glucosidase II of the endoplasmic reticulum (GANAB) (Q14697 29-944): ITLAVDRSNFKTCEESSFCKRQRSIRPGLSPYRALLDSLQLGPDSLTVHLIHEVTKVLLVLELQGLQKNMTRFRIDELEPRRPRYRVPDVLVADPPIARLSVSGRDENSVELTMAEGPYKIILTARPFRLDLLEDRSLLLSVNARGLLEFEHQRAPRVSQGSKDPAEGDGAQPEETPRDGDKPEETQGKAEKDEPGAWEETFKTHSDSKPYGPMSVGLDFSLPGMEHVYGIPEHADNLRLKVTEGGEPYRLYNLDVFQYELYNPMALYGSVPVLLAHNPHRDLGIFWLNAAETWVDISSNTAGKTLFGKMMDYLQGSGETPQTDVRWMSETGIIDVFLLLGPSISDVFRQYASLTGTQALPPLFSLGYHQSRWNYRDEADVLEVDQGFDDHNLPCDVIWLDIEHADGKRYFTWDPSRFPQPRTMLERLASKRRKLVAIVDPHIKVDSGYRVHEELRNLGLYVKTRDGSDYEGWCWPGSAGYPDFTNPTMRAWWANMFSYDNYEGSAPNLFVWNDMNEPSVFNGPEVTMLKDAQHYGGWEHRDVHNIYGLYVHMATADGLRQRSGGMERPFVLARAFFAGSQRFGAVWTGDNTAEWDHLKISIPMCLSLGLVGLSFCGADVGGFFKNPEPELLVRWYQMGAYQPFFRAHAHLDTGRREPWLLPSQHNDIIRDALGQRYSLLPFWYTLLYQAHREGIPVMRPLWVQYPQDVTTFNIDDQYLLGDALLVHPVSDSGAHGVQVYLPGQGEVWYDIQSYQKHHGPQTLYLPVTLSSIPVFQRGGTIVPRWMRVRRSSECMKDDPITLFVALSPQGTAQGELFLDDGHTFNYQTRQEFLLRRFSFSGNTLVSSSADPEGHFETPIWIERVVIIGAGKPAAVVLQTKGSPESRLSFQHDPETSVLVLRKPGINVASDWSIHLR
Chain of α-glucosidase II of the endoplasmic reticulum (GANAB) (P14314 15-528 partner): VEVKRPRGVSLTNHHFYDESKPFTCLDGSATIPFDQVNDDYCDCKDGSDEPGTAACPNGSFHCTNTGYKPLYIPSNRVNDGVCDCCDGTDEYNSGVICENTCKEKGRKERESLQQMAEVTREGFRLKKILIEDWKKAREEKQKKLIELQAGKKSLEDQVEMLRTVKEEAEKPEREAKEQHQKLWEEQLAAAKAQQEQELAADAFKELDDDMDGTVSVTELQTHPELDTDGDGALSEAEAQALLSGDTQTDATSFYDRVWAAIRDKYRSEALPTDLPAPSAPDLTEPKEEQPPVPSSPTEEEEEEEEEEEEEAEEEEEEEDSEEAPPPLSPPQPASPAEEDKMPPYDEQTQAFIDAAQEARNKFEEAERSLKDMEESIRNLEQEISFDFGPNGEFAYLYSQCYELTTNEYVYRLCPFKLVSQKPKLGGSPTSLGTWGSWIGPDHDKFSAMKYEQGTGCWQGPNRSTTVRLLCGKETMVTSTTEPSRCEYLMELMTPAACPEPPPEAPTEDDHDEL
Chain of β-glucosylceramide synthase (GCS) (O88693 whole entry): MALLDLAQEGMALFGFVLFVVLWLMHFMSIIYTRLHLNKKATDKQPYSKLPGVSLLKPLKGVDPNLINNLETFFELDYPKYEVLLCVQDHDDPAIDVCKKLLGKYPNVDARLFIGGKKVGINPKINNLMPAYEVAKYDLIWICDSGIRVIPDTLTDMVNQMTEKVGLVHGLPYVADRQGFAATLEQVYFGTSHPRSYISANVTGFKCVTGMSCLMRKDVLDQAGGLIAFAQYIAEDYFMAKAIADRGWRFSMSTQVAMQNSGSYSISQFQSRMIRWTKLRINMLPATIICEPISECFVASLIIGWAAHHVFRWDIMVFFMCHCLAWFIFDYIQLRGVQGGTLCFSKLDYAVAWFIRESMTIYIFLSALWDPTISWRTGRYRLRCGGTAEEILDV
Chain of human non-lysosomal β-glucosylceramidase (GBA2) (Q9HCG7 whole entry): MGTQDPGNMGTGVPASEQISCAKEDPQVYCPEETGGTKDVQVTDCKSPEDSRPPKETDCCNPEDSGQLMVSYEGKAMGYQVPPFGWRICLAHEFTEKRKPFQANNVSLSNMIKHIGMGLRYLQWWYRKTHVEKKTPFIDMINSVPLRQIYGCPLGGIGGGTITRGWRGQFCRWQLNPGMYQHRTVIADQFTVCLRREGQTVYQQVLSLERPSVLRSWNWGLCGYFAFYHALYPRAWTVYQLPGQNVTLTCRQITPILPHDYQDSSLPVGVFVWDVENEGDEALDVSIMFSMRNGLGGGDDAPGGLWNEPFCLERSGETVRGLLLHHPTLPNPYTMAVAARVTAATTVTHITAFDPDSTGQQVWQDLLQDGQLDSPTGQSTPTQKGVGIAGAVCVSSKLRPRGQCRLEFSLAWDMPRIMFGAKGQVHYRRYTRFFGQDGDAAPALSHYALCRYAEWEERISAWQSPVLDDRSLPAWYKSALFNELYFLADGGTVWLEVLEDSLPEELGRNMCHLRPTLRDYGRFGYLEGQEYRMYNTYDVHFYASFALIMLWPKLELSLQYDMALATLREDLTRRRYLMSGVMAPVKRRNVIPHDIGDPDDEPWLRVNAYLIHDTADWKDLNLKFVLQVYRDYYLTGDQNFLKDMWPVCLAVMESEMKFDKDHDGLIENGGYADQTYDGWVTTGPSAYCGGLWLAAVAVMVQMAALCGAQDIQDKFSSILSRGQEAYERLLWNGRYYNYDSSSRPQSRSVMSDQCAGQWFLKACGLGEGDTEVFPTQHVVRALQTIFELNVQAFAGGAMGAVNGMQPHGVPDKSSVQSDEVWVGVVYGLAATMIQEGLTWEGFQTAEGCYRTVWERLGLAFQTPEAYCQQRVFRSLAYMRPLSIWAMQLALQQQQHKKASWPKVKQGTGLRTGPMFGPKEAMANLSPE

Regarding `OC[C@]12[C@@H](O)[C@H](O)[C@@H](O)CN1[C@@H]2C(O)c1ccccc1` (stereo in doubt) [Compound (IIm), (3S,4R,5R,6R,7S)-7-((S)-hydroxy(phenyl)methyl)-6-(hydroxymethyl)-1-azabicyclo[4.1.0]heptane-3,4,5-triol], the IC50 in assay [1] was 45 µM.

Consider `CC[C@]1(CO)NC[C@H](O)[C@@H](O)[C@@H]1O` [(IIa), (2R,3R,4R,5S)-2-ethyl-2-(hydroxymethyl)piperidine-3,4,5-triol], for which the IC50 in assay [2] was 341 µM; in assay [3], greater than 1 mM; in assay [4], greater than 100 µM; in assay [5], greater than 1 mM; in assay [6] it was greater than 50 µM; in assay [1], 0.42 µM. Further, the values for the ΔTm at 100 µM on rhGAA (setting [7]) and at rhGAA (setting [8]) were 8.1 °C and 12.7 °C, respectively.

As for `CCC[C@]1(CO)NC[C@H](O)[C@@H](O)[C@@H]1O` [(IIb), (2R,3R,4R,5S)-2-(hydroxymethyl)-2-propylpiperidine-3,4,5-triol], the Ki in assay [2] amounted to 13 µM. Besides, the IC50 in assay [2] is 104 µM; in assay [3] it was greater than 1 mM; in assay [4], greater than 100 µM; in assay [5], greater than 1 mM; in assay [6], greater than 50 µM; in assay [1], 0.39 µM. The ΔTm at 100 µM at rhGAA (setting [7]) was determined as 7.8 °C; on rhGAA (setting [8]), 11.5 °C.

In the case of `OC[C@@]1(CCc2ccccc2)NC[C@H](O)[C@@H](O)[C@@H]1O` [(IIc), (2R,3R,4R,5S)-2-(hydroxymethyl)-2-phenethylpiperidine-3,4,5-triol], the Ki in assay [2] was 7.6 µM. The IC50 was 37.2 µM in assay [2]; greater than 1 mM in assay [3]; greater than 100 µM in assay [4]; greater than 1 mM in assay [5]; greater than 50 µM in assay [6]; 0.22 µM in assay [1]. In addition, the values for the ΔTm at 100 µM at rhGAA (setting [7]) and on rhGAA (setting [8]) were 11.8 °C and 13 °C, respectively.

In the case of `OCC[C@]1(CO)NC[C@H](O)[C@@H](O)[C@@H]1O` [(IId), (2R,3R,4R,5S)-2-(2-hydroxyethyl)-2-(hydroxymethyl)piperidine-3,4,5-triol], in assay [2], the Ki worked out at 18.9 µM. Further, the half-inhibitory concentration (IC50) is 182 µM in assay [2]; greater than 1 mM in assay [3]; greater than 100 µM in assay [4]; greater than 1 mM in assay [5]; greater than 50 µM in assay [6]; 0.15 µM in assay [1]. Also, the ΔTm at 100 µM on rhGAA (setting [7]) was determined as 9.4 °C; at rhGAA (setting [8]), 10.7 °C.

On to `CCCCC[C@]1(CO)NC[C@H](O)[C@@H](O)[C@@H]1O` [Compound (IIb1), (2R,3R,4R,5S)-2-(hydroxymethyl)-2-pentylpiperidine-3,4,5-triol], for which, in assay [2], the Ki is 6.4 µM and the IC50 turned out to be 49.1 µM. Besides, the ΔTm at 100 µM at rhGAA (setting [8]) was found to be 6.2 °C.

`CCCCCCC[C@]1(CO)NC[C@H](O)[C@@H](O)[C@@H]1O` [Compound (IIb3), (2R,3R,4R,5S)-2-heptyl-2-(hydroxymethyl)piperidine-3,4,5-triol]: in assay [2], the Ki worked out at 10.8 µM and the IC50 came out at 29.6 µM. The ΔTm at 100 µM on rhGAA (setting [8]) came out at 16.9 °C.

`OC[C@@]1(CCC2CCCCC2)NC[C@H](O)[C@@H](O)[C@@H]1O` [Compound (IIb7), (2R,3R,4R,5S)-2-(2-cyclohexylethyl)-2-(hydroxymethyl)piperidine-3,4,5-triol]: the ΔTm at 100 µM on rhGAA (setting [8]) came to 16.8 °C.

Turning to `OC[C@@]1(CCCc2ccccc2)NC[C@H](O)[C@@H](O)[C@@H]1O` [Compound (IIc1), (2R,3R,4R,5S)-2-(hydroxymethyl)-2-(3-phenylpropyl)piperidine-3,4,5-triol], in assay [2], the Ki is 13 µM and the IC50 was 32.9 µM. Further, at rhGAA (setting [8]), the ΔTm at 100 µM turned out to be 15 °C.

For `OC[C@@]12CCN1C[C@H](O)[C@@H](O)[C@@H]2O` [Compound (IIh), (3S,4R,5R,6R)-6-(hydroxymethyl)-1-azabicyclo[4.2.0]octane-3,4,5-triol], the IC50 in assay [1] came to 9.7 µM.

For the molecule `OC[C@@H](O)[C@H]1N2C[C@H](O)[C@@H](O)[C@H](O)[C@]12CO` (stereo partly drawn) [Compound (IIj), (3S,4R,5R,6R,7S)-7-((S)-1,2-dihydroxyethyl)-6-(hydroxymethyl)-1-azabicyclo[4.1.0]heptane-3,4,5-triol], the IC50 in assay [1] amounted to 15.2 µM.

Consider `OC[C@H]1N2C[C@H](O)[C@@H](O)[C@H](O)[C@]12CO` (stereo partly drawn) [Compound (IIk), (3S,4R,5R,6R,7S)-6,7-bis(hydroxymethyl)-1-azabicyclo[4.1.0]heptane-3,4,5-triol], for which the IC50 in assay [1] was 11.6 µM.

Take `OC[C@]12[C@@H](O)[C@H](O)[C@@H](O)CN1[C@@H]2[C@H](O)C1CCCCC1` (stereo partly drawn) [Compound (IIn), (3S,4R,5R,6R,7S)-7-((R)-cyclohexyl(hydroxy)methyl)-6-(hydroxymethyl)-1-azabicyclo[4.1.0]heptane-3,4,5-triol]: the concentration for half-maximal inhibition (IC50) in assay [1] turned out to be 24.6 µM.

For the molecule `OC[C@@]1(CCC23CC4CC(CC(C4)C2)C3)NC[C@H](O)[C@@H](O)[C@@H]1O` [Compound (IIr)], in assay [2], the Ki was determined as 20 µM and the IC50 was found to be 29.5 µM. On rhGAA (pH 7.4), the “rhGAA ΔTm at pH 7.4” value is 14.5 °C.

With `C[Si](C)(C)CC[C@]1(CO)NC[C@H](O)[C@@H](O)[C@@H]1O` [Compound (IIx1), (2R,3R,4R,5S)-2-(hydroxymethyl)-2-(2-(trimethylsilyl)ethyl)piperidine-3,4,5-triol], in assay [2], the IC50 amounted to 40.3 µM. The ΔTm at 100 µM at rhGAA (setting [8]) is 16.5 °C.
